{"source": "patent US20240252463A1", "about": "“METHODS OF TREATING FIBROTIC PATHOLOGIES” (Mayo Foundation for Medical Education and Research, priority 2018, published 2024)", "key": {"YAP/TAZ": {"test_system": "YAP/TAZ", "test": "YAP/TAZ nuclear localization in IMR-90 and other mesenchymal cells (cardiac, dermal fibroblasts, hepatic stellate cells)", "type": "cell-based, human", "method": "FIGS. 2A-2E Dopamine Receptor D1 agonism blocks YAP/TAZ nuclear localization. 2a. Selective agonists of dopamine receptor D1 with varying efficacy inhibit YAP/TAZ nuclear localization; this effect can be overcome by treatment with a DRD1 receptor antagonist (SCH 39166, 3 μM), (Dihydrexidine, 10 μM). IMR-90 cells treated 2 hours prior to fixation. N=4 (****p<0.0001 vs. 0.1% DMSO vehicle control). Scale bar represents 100 μm. 2b. Consistent with DRD1 expression, DHX inhibits YAP/TAZ only in fibroblasts (IPF-FBs) but not in epithelial (NHEpCs) or endothelial (NHMVECs) cells. N=4 (****p<0.0001 vs. 0.1% DMSO vehicle control) 2c. YAP/TAZ localization is induced through multiple ligands which stimulate receptors coupled to Galphαi/q/12, endothelin 1 (ET-1: 100 nM), lysophosphatidic acid (LPA: 10 μM), and serotonin (5-HT: 1 μM). In each case DHX treatment (10 μM) can reverse this effect on YAP/TAZ. IMR-90 cells plated densely onto plastic cell culture plates for 24 hours in media containing 0.1% FBS, treated for 2 hours prior to fixation. N=4 (****p<0.0001 vs. 0.1% DMSO vehicle control), (++++p<0.0001 vs. the respective stimulated agonist ET-1, LPA, or 5-HT). Scale bar represents 100 μm. 2d. cAMP measured in IPF patient-derived fibroblasts treated for 20 minutes with DHX (10 μM)+/−SCH 39166 (3 μM). N=3 (**p<0.01 vs. 0.1% DMSO vehicle control). 2e. Phosphorylation of YAP by Rho-kinase inhibitor Y27632 (20 μM), direct cAMP stimulator Forskolin (10 μM), or DHX (10 μM). IMR-90 cells cultured for 24 hours in media containing 0.1% FBS, treated 2 hours prior to fixation. N=3 (***p<0.001 vs. 0.1% DMSO vehicle control).\nFIGS. 6A-6C DHX inhibits YAP/TAZ localization in fibroblasts from multiple tissues. 6a. Mesenchymal cells derived from lung (IMR-90 and IPF-FBs) hepatic stellate cells (HSC), human adult cardiac fibroblasts, (HACF) and human dermal fibroblasts (HDF) were plated densely (Confluent) or sparsely (Control and all remaining conditions) onto plastic cell culture plates for 24 hours in media containing 0.1% FBS, treated for 2 hours with Rho kinase inhibitor Y27632, adenylate cyclase activator forskolin and DHX. N=4, Cells that were positive for nuclear YAP/TAZ were quantified by automated image analysis. 6b. Time course for DHX inhibition of YAP/TAZ nuclear localization. IMR-90 cells, N=3 (***p<0.001 vs. 0.1% DMSO vehicle control). 6c. […] N=3.\nImmunofluorescenceMicroscopy: Cells were plated into 96 well plates (Corning 3603) in their specific growth media and allowed to attach (8 hours). Media was then exchanged for the indicated conditions for each experiment. Cells were fixed in 3.7% formalin (Sigma-Aldrich), permeabilized in 0.25% Triton X-100 (Sigma-Aldrich) and then blocked with 1% BSA for 1 h. Cells or tissue sections were incubated overnight with mouse monoclonal antibody against αSMA (Sigma-Aldrich F3777), and/or a rabbit monoclonal antibody against YAP/TAZ (Cell Signaling D24E4) diluted 1:200 in PBS with 1% BSA. Cells were then washed and exposed to flourescence-conjugated secondary antibodies (Invitrogen) diluted 1:1000 and DAPI (Thermo Fisher Scientific). Images were taken with a Cytation5 (BioTek) microscope. For scoring αSMA positive cells (FIG. 3b), an observer blinded to the treatment conditions counted αSMA-positive cells using a visual threshold for bright fibrous staining; a minimum of 200 cells was counted for each condition. YAP/TAZ localization was quantified (FIG. 2, 6, 8) using Gen5 (Biotek) software. Images were taken at 4× magnification of both DAPI and YAP/TAZ staining. […] Quantification of double positive (YAP/TAZ and αSMA) cells from lung tissue sections (FIG. 4d) was performed similarly; however separate thresholds were established for both YAP/TAZ and αSMA. A minimum of 4000 cells was quantified for each mouse."}, "TAZ4SA": {"test_system": "TAZ4SA", "test": "Gene expression and ECM deposition in NIH-3T3 cells expressing constitutively active mutant TAZ (TAZ4SA)", "type": "cell-based, mouse", "conditions": "doxycycline-induced TAZ4SA NIH-3T3", "method": "FIGS. 8A-8B DHX inhibition of pro-fibrotic gene expression and matrix deposition requires inhibition of YAP/TAZ. […] TAZ4SA expression was induced with 100 ng/mL doxycycline for 72 hours prior to treatment with 10 μM or the indicated concentration of dihydrexidine. For gene expression experiments efficacy of DHX in NIH-3T3 cells was validated with by DHX (10 μM) effect on TGFβ (24 hour, 2 ng/mL) induced gene expression. N=2 for all.\nCell culture: Cells were all maintained in EMEM (ATCC) containing 10% FBS, unless otherwise noted. IMR-90 embryonic lung fibroblasts and NIH-3T3 mouse fibroblasts were purchased from ATCC. Doxycycline-inducible Tet-On NIH3T3 expressing TAZ4SA or control empty vector were described previously. Normal Human Alveolar Epithelial Cells (NHAEpCs), Normal Human Microvascular Endothelial Cells (NHMVECs), Normal Human Lung Fibroblasts (NHLFs), and Human Dermal Fibroblasts (HDFs) were purchased from Lonza and were cultured in the proprietary media per Lonza's recommendation. Human Adult Cardiac Fibroblasts (HACFs) and Hepatic Stellate Cells (HSCs) were purchased from ScienCell and were cultured in the proprietary media per ScienCell's recommendation. Hepatocytes were purchased from Samsara and were cultured in the proprietary media per Samsara's recommendation. […]"}, "pYAP (Ser 127)": {"test_system": "pYAP (Ser 127)", "test": "Western blotting of YAP serine 127 phosphorylation, IMR-90 cells", "type": "cell-based, human", "conditions": "IMR-90, DHX 10 μM, 2 hours", "excerpt": "Scale bar represents 100 μm. […] Scale bar represents 100 μm."}}, "data": [{"smiles": "Oc1cc2c(cc1O)[C@H]1c3ccccc3CN[C@@H]1CC2", "note": "(racemic) [Dihydrexidine, dihydrexidine]", "values": [{"measurement": "potency of inhibition of YAP/TAZ nuclear localization, normal lung fibroblasts vs IPF-derived", "setting": "YAP/TAZ; FIG. 6c", "result": "equally potent"}, {"measurement": "YAP/TAZ nuclear localization across a panel of mesenchymal cell types", "setting": "YAP/TAZ; cardiac and dermal fibroblasts and hepatic stellate cells (FIG. 6)", "result": "effective at inhibiting YAP/TAZ nuclear localization"}, {"measurement": "YAP/TAZ nuclear localization induced by endothelin-1, lysophosphatidic acid and serotonin", "setting": "YAP/TAZ; confluent IMR-90, DHX 10 μM, 2 hours (FIG. 2c)", "result": "blocked nuclear localization of YAP/TAZ"}, {"measurement": "YAP/TAZ nuclear localization", "setting": "YAP/TAZ; fibroblasts on stiff matrix (plastic), IMR-90 cells treated 2 hours (FIG. 2a)", "result": "reduced nuclear localization of YAP/TAZ"}, {"measurement": "profibrotic gene expression and extracellular matrix accumulation in TAZ4SA cells", "setting": "TAZ4SA", "result": "had no effect on profibrotic gene expression or extracellular matrix accumulation"}, {"measurement": "YAP serine 127 phosphorylation", "setting": "pYAP (Ser 127)", "result": "promoted YAP serine 127 phosphorylation"}]}]}
